Assay results as given in ChEMBL document CHEMBL1208734, “Aryl boronic acid inhibition of synthetic melanin polymerization” (Bioorg Med Chem Lett, 2010).

What was measured:
[1] = Inhibition of synthetic melanin polymerization after 30 to 60 mins by UV-vis spectroscopic analysis; assay type: functional
[2] = Inhibition of synthetic melanin polymerization at 2 mM after 30 to 60 mins by UV-vis spectroscopic analysis relative to control; assay type: functional; conditions: values are per cent of control

| SMILES | IC50 [1] [µM] | residual activity [2] [%] |
| --- | --- | --- |
| CC(=O)c1ccc(B(O)O)cc1 | 690 | 30.5 |
| OB(O)c1ccc(Br)cc1 | 1030 | 37.7 |
| Cc1ccc(B(O)O)cc1 [TOLYL BORONIC ACID] | 4450 | 62.8 |
| OB(O)c1ccccc1 [PHENYLBORONIC ACID] | 1840 | 51.7 |
| O=[N+]([O-])c1ccc(B(O)O)cc1 | 550 | 21.5 |
| OB(O)c1ccc(C(F)(F)F)cc1 | 800 | 26.9 |
| OB(O)c1ccc(Cl)cc1 | 1310 | 41.2 |
| OB(O)c1ccc(F)cc1 | 1840 | 49.7 |
| COc1ccc(B(O)O)cc1 | 6200 | 66.1 |
| N#Cc1ccc(B(O)O)cc1 | 590 | 19.4 |
